# Experimental data as given in patent publication US10787452B2 (Vertex Pharmaceuticals Incorporated, priority 2012, dated 2020).
# Tested on: HCT116 colorectal cancer cells
# Assay: Cisplatin sensitization assay (96 h cell viability MTS);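 also: compound concentration needed to lower the Cisplatin-alone IC50 by a set fold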
# Type: cell-based
# Conditions: 96 h MTS, compound plus Cisplatin
# Outline: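 Test compound and cisplatin were added together as a full matrix of 2-fold serial dilutions, each from a top final concentration of 10 μM. Cells were incubated 96 h at 37° C in 5% CO2, then viability was read by MTS after a further 1 h incubation.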
structure (smiles),measurement,value
"CN(C)CC1CCN(c2ccncc2NC(=O)c2c(N)nn3cc(Cl)cnc23)CC1 [I-N-45, 2-amino-6-chloro-N-(4-(4-((dimethylamino)methyl)piperidin-1-yl)pyridin-3-yl)pyrazolo[1,5-a]pyrimidine-3-carboxamide]",Cisplatin Sensitization Assay,++ (Compounds with a Cisplatin sensitization value >0.02 μM but <0.2 μM are marked with “++.”)
"COC1(CN(C)C)CCN(c2ccncc2NC(=O)c2c(N)nn3cc(Cl)cnc23)CC1 [I-N-46, 2-amino-6-chloro-N-(4-(4-((dimethylamino)methyl)-4-methoxypiperidin-1-yl)pyridin-3-yl)pyrazolo[1,5-a]pyrimidine-3-carboxamide]",Cisplatin Sensitization Assay,+++ (Compounds with a Cisplatin sensitization value of <0.02 μM are marked with “+++.”)
"COCC1CN(c2ccncc2NC(=O)c2c(N)nn3cc(Cl)cnc23)CCN1C (stereo not drawn) [I-N-47, 2-amino-6-chloro-N-(4-(3-(methoxymethyl)-4-methylpiperazin-1-yl)pyridin-3-yl)pyrazolo[1,5-a]pyrimidine-3-carboxamide]",Cisplatin Sensitization Assay,++ (Compounds with a Cisplatin sensitization value >0.02 μM but <0.2 μM are marked with “++.”)
"Nc1nn2cc(Cl)cnc2c1C(=O)Nc1cnccc1N1CCN(C2CCC2)CC1 [I-N-48, 2-amino-6-chloro-N-(4-(4-cyclobutylpiperazin-1-yl)pyridin-3-yl)pyrazolo[1,5-a]pyrimidine-3-carboxamide]",Cisplatin Sensitization Assay,++ (Compounds with a Cisplatin sensitization value >0.02 μM but <0.2 μM are marked with “++.”)
"CN(C)CCN1CCN(c2ccncc2NC(=O)c2c(N)nn3cc(Cl)cnc23)CC1 [I-N-49, 2-amino-6-chloro-N-(4-(4-(2-(dimethylamino)ethyl)piperazin-1-yl)pyridin-3-yl)pyrazolo[1,5-a]pyrimidine-3-carboxamide]",Cisplatin Sensitization Assay,+++ (Compounds with a Cisplatin sensitization value of <0.02 μM are marked with “+++.”)
"CN1CCN(c2cc(N)ncc2NC(=O)c2c(N)nn3cc(Cl)cnc23)CC1 [I-N-50, 2-amino-N-(6-amino-4-(4-methylpiperazin-1-yl)pyridin-3-yl)-6-chloropyrazolo[1,5-a]pyrimidine-3-carboxamide]",Cisplatin Sensitization Assay,+ (Compounds with a Cisplatin sensitization value >0.2 μM but <5 μM are marked with “+.”)
"CN1CCN(c2cc(Cl)ncc2NC(=O)c2c(N)nn3cc(Cl)cnc23)CC1 [I-N-52, 2-amino-6-chloro-N-(6-chloro-4-(4-methylpiperazin-1-yl)pyridin-3-yl)pyrazolo[1,5-a]pyrimidine-3-carboxamide]",Cisplatin Sensitization Assay,++ (Compounds with a Cisplatin sensitization value >0.02 μM but <0.2 μM are marked with “++.”)
"CN1CCN(c2ccncc2NC(=O)c2c(N)nn3cc(Cl)cnc23)CC1(C)C [I-N-53, 2-amino-6-chloro-N-(4-(3,3,4-trimethylpiperazin-1-yl)pyridin-3-yl)pyrazolo[1,5-a]pyrimidine-3-carboxamide]",Cisplatin Sensitization Assay,++ (Compounds with a Cisplatin sensitization value >0.02 μM but <0.2 μM are marked with “++.”)
"CC1CN(c2ccncc2NC(=O)c2c(N)nn3cc(Cl)cnc23)CCN1C (stereo not drawn) [I-N-54, 2-amino-6-chloro-N-(4-(3,4-dimethylpiperazin-1-yl)pyridin-3-yl)pyrazolo[1,5-a]pyrimidine-3-carboxamide]",Cisplatin Sensitization Assay,+++ (Compounds with a Cisplatin sensitization value of <0.02 μM are marked with “+++.”)
"Nc1nn2cc(Cl)cnc2c1C(=O)Nc1cnccc1N1CCCC(N)C1 (stereo not drawn) [I-N-55, 2-amino-N-(4-(3-aminopiperidin-1-yl)pyridin-3-yl)-6-chloropyrazolo[1,5-a]pyrimidine-3-carboxamide]",Cisplatin Sensitization Assay,++ (Compounds with a Cisplatin sensitization value >0.02 μM but <0.2 μM are marked with “++.”)
"Nc1nn2cc(Cl)cnc2c1C(=O)Nc1cnccc1N1CCN2CCC1CC2 [I-N-56, N-(4-(1,4-diazabicyclo[3.2.2]nonan-4-yl)pyridin-3-yl)-2-amino-6-chloropyrazolo[1,5-a]pyrimidine-3-carboxamide]",Cisplatin Sensitization Assay,++ (Compounds with a Cisplatin sensitization value >0.02 μM but <0.2 μM are marked with “++.”)
"Cc1cncc(NC(=O)c2c(N)nn3cc(Cl)cnc23)c1N1CCN(C)CC1 [I-N-57, 2-amino-6-chloro-N-(5-methyl-4-(4-methylpiperazin-1-yl)pyridin-3-yl)pyrazolo[1,5-a]pyrimidine-3-carboxamide]",Cisplatin Sensitization Assay,+++ (Compounds with a Cisplatin sensitization value of <0.02 μM are marked with “+++.”)
"Nc1nn2cc(Cl)cnc2c1C(=O)Nc1cnccc1N1CCN(C2COC2)CC1 [I-N-58, 2-amino-6-chloro-N-(4-(4-(oxetan-3-yl)piperazin-1-yl)pyridin-3-yl)pyrazolo[1,5-a]pyrimidine-3-carboxamide]",Cisplatin Sensitization Assay,++ (Compounds with a Cisplatin sensitization value >0.02 μM but <0.2 μM are marked with “++.”)
"CN1CCN(c2ccncc2NC(=O)c2c(N)nn3cc(Cl)cnc23)CC1 [I-N-59, 2-amino-6-chloro-N-(4-(4-methylpiperazin-1-yl)pyridin-3-yl)pyrazolo[1,5-a]pyrimidine-3-carboxamide]",Cisplatin Sensitization Assay,++ (Compounds with a Cisplatin sensitization value >0.02 μM but <0.2 μM are marked with “++.”)
"COCCN1CCN(c2ccncc2NC(=O)c2c(N)nn3cc(Cl)cnc23)CC1 [I-N-60, 2-amino-6-chloro-N-(4-(4-(2-methoxyethyl)piperazin-1-yl)pyridin-3-yl)pyrazolo[1,5-a]pyrimidine-3-carboxamide]",Cisplatin Sensitization Assay,+++ (Compounds with a Cisplatin sensitization value of <0.02 μM are marked with “+++.”)
"CN1CCN2CCN(c3ccncc3NC(=O)c3c(N)nn4cc(Cl)cnc34)CC2C1 (stereo not drawn) [I-N-61, 2-amino-6-chloro-N-(4-(8-methylhexahydro-1H-pyrazino[1,2-a]pyrazin-2(6H)-yl)pyridin-3-yl)pyrazolo[1,5-a]pyrimidine-3-carboxamide]",Cisplatin Sensitization Assay,+++ (Compounds with a Cisplatin sensitization value of <0.02 μM are marked with “+++.”)
"CC1(N2CCN(c3ccncc3NC(=O)c3c(N)nn4cc(F)cnc34)CC2)COC1 [I-N-62, 2-amino-6-fluoro-N-(4-(4-(3-methyloxetan-3-yl)piperazin-1-yl)pyridin-3-yl)pyrazolo[1,5-a]pyrimidine-3-carboxamide]",Cisplatin Sensitization Assay,++ (Compounds with a Cisplatin sensitization value >0.02 μM but <0.2 μM are marked with “++.”)
"CN1CCN(c2ccncc2NC(=O)c2c(N)nn3cc(Cl)cnc23)CC1CO (stereo not drawn) [I-N-63, 2-amino-6-chloro-N-(4-(3-(hydroxymethyl)-4-methylpiperazin-1-yl)pyridin-3-yl)pyrazolo[1,5-a]pyrimidine-3-carboxamide]",Cisplatin Sensitization Assay,++ (Compounds with a Cisplatin sensitization value >0.02 μM but <0.2 μM are marked with “++.”)
"Nc1nn2cc(Cl)cnc2c1C(=O)Nc1cnccc1N1CCN(C2CC2)CC1 [I-N-64, 2-amino-6-chloro-N-(4-(4-cyclopropylpiperazin-1-yl)pyridin-3-yl)pyrazolo[1,5-a]pyrimidine-3-carboxamide]",Cisplatin Sensitization Assay,+++ (Compounds with a Cisplatin sensitization value of <0.02 μM are marked with “+++.”)
"Nc1nn2cc(Cl)cnc2c1C(=O)Nc1cnccc1N1CCN2CCC[C@@H]2C1 [I-N-65, (R)-2-amino-6-chloro-N-(4-(hexahydropyrrolo[1,2-a]pyrazin-2(1H)-yl)pyridin-3-yl)pyrazolo[1,5-a]pyrimidine-3-carboxamide]",Cisplatin Sensitization Assay,+ (Compounds with a Cisplatin sensitization value >0.2 μM but <5 μM are marked with “+.”)
"CC1(O)CCN(c2ccncc2NC(=O)c2c(N)nn3cc(Cl)cnc23)CC1 [I-N-66, 2-amino-6-chloro-N-(4-(4-hydroxy-4-methylpiperidin-1-yl)pyridin-3-yl)pyrazolo[1,5-a]pyrimidine-3-carboxamide]",Cisplatin Sensitization Assay,+++ (Compounds with a Cisplatin sensitization value of <0.02 μM are marked with “+++.”)
"Nc1nn2cc(Cl)cnc2c1C(=O)Nc1cnccc1N1CCN(CC(F)(F)F)CC1 [I-N-67, 2-amino-6-chloro-N-(4-(4-(2,2,2-trifluoroethyl)piperazin-1-yl)pyridin-3-yl)pyrazolo[1,5-a]pyrimidine-3-carboxamide]",Cisplatin Sensitization Assay,+++ (Compounds with a Cisplatin sensitization value of <0.02 μM are marked with “+++.”)
"Nc1nn2cc(Cl)cnc2c1C(=O)Nc1cnccc1N1CC[S+]([O-])CC1 [I-N-68, 2-amino-6-chloro-N-(4-(1-oxidothiomorpholino)pyridin-3-yl)pyrazolo[1,5-a]pyrimidine-3-carboxamide]",Cisplatin Sensitization Assay,+++ (Compounds with a Cisplatin sensitization value of <0.02 μM are marked with “+++.”)
"CC(C)(O)C1CCN(c2ccncc2NC(=O)c2c(N)nn3cc(Cl)cnc23)CC1 [I-N-69, 2-amino-6-chloro-N-(4-(4-(2-hydroxypropan-2-yl)piperidin-1-yl)pyridin-3-yl)pyrazolo[1,5-a]pyrimidine-3-carboxamide]",Cisplatin Sensitization Assay,+++ (Compounds with a Cisplatin sensitization value of <0.02 μM are marked with “+++.”)
"Nc1nn2cc(Cl)cnc2c1C(=O)Nc1cnccc1N1CCNC(C(F)(F)F)C1 (stereo not drawn) [I-N-70, 2-amino-6-chloro-N-(4-(3-(trifluoromethyl)piperazin-1-yl)pyridin-3-yl)pyrazolo[1,5-a]pyrimidine-3-carboxamide]",Cisplatin Sensitization Assay,++ (Compounds with a Cisplatin sensitization value >0.02 μM but <0.2 μM are marked with “++.”)
"Nc1nn2cc(Cl)cnc2c1C(=O)Nc1cnccc1N1CCN2CCC[C@H]2C1 [I-N-71, (S)-2-amino-6-chloro-N-(4-(hexahydropyrrolo[1,2-a]pyrazin-2(1H)-yl)pyridin-3-yl)pyrazolo[1,5-a]pyrimidine-3-carboxamide]",Cisplatin Sensitization Assay,+++ (Compounds with a Cisplatin sensitization value of <0.02 μM are marked with “+++.”)
"CC1CN(C)CCN1c1ccncc1NC(=O)c1c(N)nn2cc(Cl)cnc12 (stereo not drawn) [I-N-72, 2-amino-6-chloro-N-(4-(2,4-dimethylpiperazin-1-yl)pyridin-3-yl)pyrazolo[1,5-a]pyrimidine-3-carboxamide]",Cisplatin Sensitization Assay,+++ (Compounds with a Cisplatin sensitization value of <0.02 μM are marked with “+++.”)
